Measurements from patent publication US10047084B2, “Imidazolone derivatives, pharmaceutical compositions and uses thereof” (BEIJING FORELANDPHARMA CO. LTD., priority 2013, dated 2018).

Tests used:
PC-3 = assay: CTG cell survival assay, PC-3; assay type: cell-based; settings: Homo sapiens, PC-3 cells
Method in brief: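 Cells were exposed to compounds in a 3-fold dilution series, with a top final concentration of 10 uM in 0.1% DMSO. Viable cells were quantified by CellTiter-Glo ATP luminescence.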

[1] = molecular target: PI3K-alpha (PIK3CA/PIK3R1) (Homo sapiens (Human), UniProt P42336); assay: PI3K-alpha enzyme activity assay (ADP Glo); assay type: biochemical; settings: read-out: Activity of inhibiting PI3K enzyme IC50
Source text: 3. PI3K-alpha Enzyme Activity Assay: PI3K alpha-ADP Glo Assay was employed. In the determination of PI3K enzyme activity, the detection kit supplied by Promega (Promega, Cat #: V9101) was used to detect the inhibition effect of the compounds on the activity of PI3K enzyme. The adenosine diphosphate produced during the whole enzymic reactions was quantified. The resulting values were used to calculate the activity of PI3K (Table 1).
3.1 Detection reagents: PIK3CA/PIK3R1 purchased from Invitrogen (Cat #: PV4788): The active kinase was diluted with kinase diluent III; and mixed with bovine serum albumin (BSA) in a ratio of 1:4 (5×dilution). The final BSA concentration was 50 ng/ml; and the compositions of Kinase Detection Solution I were: 25 mM MOPS, pH7.2, 12.5 mM β-glycerophosphate, 25 mM magnesium chloride, 5 mM EGTA, and 2 mM EDTA. Before use, 0.25 mM DTT was added to Kinase Detection Solution I; 250 μM adenosine triphosphate (ATP) Detection solution: 0.55 mg of ATP was dissolved in 4 ml of Kinase Detection Solution I, subdivided in 200 μl/vial and stored at −20° C. Substrate: Phosphatidylinositol (4,5) bis-phosphate; this substrate was diluted with Kinase Detection Solution I to a concentration of 125 μM. Final concentrations were: 10 μM PIP2, 10 μM ATP, 1% DMSO, and 0.0005-10 μM compounds.
a) Experimental Procedure: • 3.2.1 50 μL of the compounds diluted with dimethyl sulfoxide (DMSO) at a concentration of 100 μM were added to the 384-well dilution plate. The compounds were diluted with dimethyl sulfo de (DMSO) in a ratio of 1:3 (10 dilution concentrations plus 1 zero concentration). • 3.2.2 5 μL of the diluted compounds were transferred to the corresponding 384-well black Proxi plate (containing 47.5 μL of detection solution/well), and shaked for several seconds. • 3.2.3 2 μL of 2.5×PI3K working solution was added to 384-well black Proxi plate. • 3.2.4 2 μL of the diluted compounds were added to the detection plate (3 wells for each concentration). • 3.2.5 The plate was incubated at room temperature for 2 h. • 3.2.6 5 μL of ADP Glo Reagent was added. • 3.2.7 The plate was incubated at room temperature for 40 minutes. • 3.2.8 10 μL of the kinase detection reagent was added. • 3.2.9 The plate was incubated at room temperature for 40 minutes. • 3.2.10 The activity was detected by using Envision Reader.
The inhibition of the mTOR […] activity by the compounds ranges in 0.5 to several hundreds nanomoles, see Table 1.

[2] = Solubility test in common aqueous vehicles; assay type: physicochemical; settings: 25° C., pH = 3

PI3K-alpha (PIK3CA/PIK3R1), sequence (P42336 whole entry, looked up): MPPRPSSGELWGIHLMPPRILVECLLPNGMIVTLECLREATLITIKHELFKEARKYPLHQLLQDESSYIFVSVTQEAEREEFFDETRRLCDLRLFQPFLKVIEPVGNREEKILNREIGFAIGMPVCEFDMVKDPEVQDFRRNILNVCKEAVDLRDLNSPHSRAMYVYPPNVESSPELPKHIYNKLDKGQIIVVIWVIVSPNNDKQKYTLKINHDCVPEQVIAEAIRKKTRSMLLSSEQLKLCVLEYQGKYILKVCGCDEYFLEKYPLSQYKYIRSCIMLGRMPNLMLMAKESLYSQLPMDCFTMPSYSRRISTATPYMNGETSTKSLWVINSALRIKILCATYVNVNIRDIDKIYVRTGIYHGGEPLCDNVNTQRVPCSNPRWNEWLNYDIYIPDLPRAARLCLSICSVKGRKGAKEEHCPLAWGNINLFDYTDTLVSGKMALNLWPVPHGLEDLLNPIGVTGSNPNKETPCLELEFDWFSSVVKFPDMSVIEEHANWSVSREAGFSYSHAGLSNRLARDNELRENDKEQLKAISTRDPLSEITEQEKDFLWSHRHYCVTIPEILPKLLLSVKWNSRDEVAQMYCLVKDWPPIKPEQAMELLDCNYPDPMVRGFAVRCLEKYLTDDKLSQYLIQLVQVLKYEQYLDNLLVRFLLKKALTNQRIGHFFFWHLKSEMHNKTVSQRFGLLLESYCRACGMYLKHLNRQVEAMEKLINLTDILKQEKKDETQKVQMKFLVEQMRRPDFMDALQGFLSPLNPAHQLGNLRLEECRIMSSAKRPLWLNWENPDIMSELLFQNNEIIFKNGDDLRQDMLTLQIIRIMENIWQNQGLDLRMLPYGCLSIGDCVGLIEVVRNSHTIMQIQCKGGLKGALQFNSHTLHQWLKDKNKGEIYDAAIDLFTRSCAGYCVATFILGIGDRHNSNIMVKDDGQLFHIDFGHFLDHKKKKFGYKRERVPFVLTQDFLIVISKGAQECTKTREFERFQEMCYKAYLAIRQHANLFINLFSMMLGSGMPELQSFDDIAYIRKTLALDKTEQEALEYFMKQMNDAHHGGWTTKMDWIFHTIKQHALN
PI3K-alpha (PIK3CA/PIK3R1), sequence (P27986 whole entry partner, looked up): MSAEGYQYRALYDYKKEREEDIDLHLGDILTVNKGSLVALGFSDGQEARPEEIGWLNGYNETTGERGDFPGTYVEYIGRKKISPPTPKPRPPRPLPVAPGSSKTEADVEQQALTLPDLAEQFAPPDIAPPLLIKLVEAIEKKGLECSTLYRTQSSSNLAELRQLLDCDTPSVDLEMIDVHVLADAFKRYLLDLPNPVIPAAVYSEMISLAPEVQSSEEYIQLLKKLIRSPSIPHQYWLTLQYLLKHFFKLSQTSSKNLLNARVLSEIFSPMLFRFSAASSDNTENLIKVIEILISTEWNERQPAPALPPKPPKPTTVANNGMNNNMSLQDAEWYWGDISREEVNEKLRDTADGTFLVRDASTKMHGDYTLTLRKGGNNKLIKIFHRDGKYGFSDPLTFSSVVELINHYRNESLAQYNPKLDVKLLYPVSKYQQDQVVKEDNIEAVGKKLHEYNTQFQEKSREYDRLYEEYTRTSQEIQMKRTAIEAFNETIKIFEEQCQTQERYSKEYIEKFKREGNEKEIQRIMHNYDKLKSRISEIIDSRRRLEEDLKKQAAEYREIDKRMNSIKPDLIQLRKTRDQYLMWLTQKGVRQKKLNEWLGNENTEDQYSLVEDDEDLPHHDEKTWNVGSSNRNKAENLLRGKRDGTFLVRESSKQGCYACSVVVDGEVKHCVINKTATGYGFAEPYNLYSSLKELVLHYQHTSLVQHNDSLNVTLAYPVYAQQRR

| Structure (SMILES) | EC50 (PC-3) [nM] | IC50 [1] [nM] | solubility ([2]; aqueous buffer, water) [µg/mL] | solubility ([2]; aqueous with cosolvent or surfactant or cyclodextrin, 30% sulfobutyl-β-cyclodextrin) [µg/mL] |
| --- | --- | --- | --- | --- |
| Cn1cc(-c2ccc(-c3ccc4ncc5c(c4c3)n(C3CCCN(S(C)(=O)=O)C3)c(=O)n5C)cn2)cn1 (centres unmarked) [Example 3, 3-methyl-8-(6-(1-methyl-1H-pyrazol-4-yl)pyridin-3-yl)-1-(1-(methanesulfonyl)piperidin-3-yl)-1H-imidazo[4,5-c]quinolin-2(3H)-one] | < 50 | < 10 | – | – |
| Cn1cc(-c2ccc(-c3ccc4ncc5c(c4c3)n([C@H]3CC[C@@H](O)CC3)c(=O)n5C)cn2)cn1 [Example 18, 1-((1s,4s)-4-hydroxycyclohexyl)-3-methyl-8-(6-(1-methyl-1H-pyrazol-4-yl)pyridin-3-yl)-1H-imidazo[4,5-c]quinolin-2(3H)-one] | < 50 | < 10 | > 5000 | – |
| Cn1cc(-c2ccc(-c3ccc4ncc5c(c4c3)n([C@H]3CCN(S(C)(=O)=O)C3)c(=O)n5C)cn2)cn1 [Example 28, (S)-3-methyl-8-(6-(1-methyl-1H-pyrazol-4-yl)pyridin-3-yl)-1-(1-(methanesulfonyl)pyrrolidin-3-yl)-1H-imidazo[4,5-c]quinolin-2(3H)-one] | < 50 | < 10 | – | > 3000 |
| Cn1cc(-c2ccc(-c3ccc4ncc5c(c4c3)n([C@@H]3CCCN(S(C)(=O)=O)C3)c(=O)n5C)cn2)cn1 [Example 31, (R)-3-methyl-8-(6-(1-methyl-1H-pyrazol-4-yl)pyridin-3-yl)-1-(1-(methanesulfonyl)piperidin-3-yl)-1H-imidazo[4,5-c]quinolin-2(3H)-one] | 19 | < 10 | > 5000 | – |
